One series relates to Trichomonas vaginalis. Put plainly: Minimum inhibition concentration on Trichomonas vaginalis, in vitro quantitative tube-dilution test. The class given is cell-based. Conditions: for Relative effectiveness Metronidazol = 1.0: MIC on Trichomonas vaginalis relative to Metronidazol = 1.0; for MIC: Trichomonas vaginalis, in vitro tube-dilution test. Here is the method:
Minimum inhibition concentrations (MIC) on Trichomonas
^1 The tests were carried out in vitro using the quantitative
tubedilutiom test described by P. Klein, Bakteriologische Geundlagen der
chemotherapeutischen Laboratoriumspraxis, SpringerVerlag
BerlinCoettingen-Heidelberg, 1957.

The next series has as its system Trypanosoma brucei. Put plainly: Trypanosoma brucei infection of the mouse. Particulars: for recidivation: 25 days post-observation. It is filed as in vivo, mouse (NMRI strains). As to the method:
(§1) The action against infections caused by Trypanosomas and Entamoeba histolytica can be illustrated on the mouse (NMRI strains) using methods described in Handbuch fur experimentelle Pharmakologie, Erganzungswerk 16, Erzeugung von Krankheitszustanden durch das Experiment, Part 9, pages 150 to 292, Springer-Verlag, Berlin-Goettingen-Heidelberg, 1964.
1. Trypanosoma brucei--infections of the mouse
(§2) Various dosages were investigated. The curing of the infection was determined microscopically and in a culture. There was also post-observation for 25 days after treatment was discontinued in order to establish whether there was any recidivation

A further series deals with Entamoeba histolytica. Briefly: Entamoeba histolytica in vitro tube-dilution test. Particulars: Entamoeba histolytica PN and Q strains, read-out: minimum inhibition concentration. The class given is cell-based. As to the method:
4. Entamoeba histolytica (tube-dilution test)
The PN and Q strains were tested.
The minimum inhibition concentrations were as follows:
The experiments were carried out in vitro using the quantitative tube-dilution test described by P. Klein, Bakteriologische Grundlagen der chemotherapeutischen Laboratoriumspraxis, Springer-Verlag, Berlin-Goettingen-Heidelberg, 1957.

In the next series the test system is Trichomonas. Put plainly: Trichomonas vaginal infection of mice. It is filed as in vivo. Particulars: po, read-out: cure; for responders at 25 mg/kg: 5×25 mg/kg perorally; for responders at 50 mg/kg: 5×50 mg/kg perorally. Here is the method:
5. Trichomonas vaginal--infection of mice Various dosages were investigated. The curing of the infection was determined microscopically and in a culture.

The next series deals with Trypanosoma gambiense. Briefly: Trypanosoma gambiense infection of mouse. The class given is in vivo, mouse (NMRI strains). Here is the method:
as §1, §2
2. Trypanosoma gambiense--infection of mouse
(§3) Same method as in the case of Trypanosoma brucei

The test system of a further series is Trypanosoma congolense. Briefly: Trypanosoma congolense infection of mouse. The class given is in vivo, mouse (NMRI strains). As to the method: as §1, §2
3. Trypanosoma congolense--infection of mouse
as §3

Series [1] is described as follows: LD 50 toxicity on mice, oral. Conditions: mouse, in vivo, NMRI strain, a week's observation period.

Here are results for nine compounds from patent US4218460A, “Nitroimidazoles” (BASF Aktiengesellschaft, priority 1978, dated 1980).

In brackets after ≈: the same amount, converted by molar mass.

For the compound `Cc1ncc([N+](=O)[O-])n1CCO` [Metronidazol, reference compound], in the series on Trichomonas vaginalis, the “Relative effectiveness Metronidazol = 1.0” value was 1.0 and the MIC stood at 0.1 µg/mL (≈ 0.584 µM). In addition, the acute action result in the series with Trypanosoma brucei (11×50 mg/kg perorally) is reported as “no action”. Moreover, in the series with Entamoeba histolytica, the MIC amounted to 0.1 µg/mL (≈ 0.584 µM). Further, the responders at 25 mg/kg with Trichomonas came to 100%.

For `Cc1nnc(C=Cc2ncc([N+](=O)[O-])n2C)s1` [Example 1, 2-methyl-5-[2-(1-methyl-5-nitroimidazol-2-yl)-vinyl]-1,3,4-thiadiazole], in the series on Trichomonas vaginalis, the “Relative effectiveness Metronidazol = 1.0” value amounted to 5.0. Further, the results for the MIC in the series on Trichomonas vaginalis and in the series with Entamoeba histolytica were 0.02 µg/mL (≈ 0.0796 µM) and less than 0.01 µg/mL, respectively. The acute action with Trypanosoma brucei (11×50 mg/kg perorally), in the series on Trypanosoma gambiense (11×50 mg/kg perorally) and in the series with Trypanosoma congolense (11×50 mg/kg perorally) was 100% throughout. In addition, the figures for the recidivation in the series with Trypanosoma brucei (11×50 mg/kg perorally) and with Trypanosoma gambiense (11×50 mg/kg perorally) were 70% and 80%, respectively. Also, the “no recidivation (so in the source)” value with Trypanosoma congolense (11×50 mg/kg perorally) came to 20%. Besides, the responders at 25 mg/kg in the series on Trichomonas was found to be 100%. Besides, in series [1], the LD50 at 168 h was greater than 1500 mg/kg.

For `CCS(=O)(=O)CCn1c([N+](=O)[O-])cnc1C` [Tinidazol, reference compound], in the series on Trichomonas vaginalis, the “Relative effectiveness Metronidazol = 1.0” value is given as 1.0 and the MIC came out at 0.1 µg/mL (≈ 0.404 µM). In the series with Trypanosoma brucei (22×50 mg/kg perorally), the action result is listed as “no action”. In addition, in the series with Trichomonas, the responders at 25 mg/kg is 100%.

For the compound `Cn1c([N+](=O)[O-])cnc1C=Cc1nnc(-c2ccncc2)s1` [Example 5, 2-(4-pyridyl)-5-[2-(1-methyl-5-nitroimidazol-2-yl)-vinyl]-1,3,4-thiadiazole], the “Relative effectiveness Metronidazol = 1.0” value in the series with Trichomonas vaginalis is 10.0. The values for the MIC with Trichomonas vaginalis and in the series on Entamoeba histolytica were 0.01 µg/mL (≈ 0.0318 µM) and less than 0.01 µg/mL, respectively. The acute action entry with Trypanosoma brucei (11×50 mg/kg perorally), in the series with Trypanosoma gambiense (11×50 mg/kg perorally) and in the series with Trypanosoma congolense (11×50 mg/kg perorally) was “no action” each time. For the same compound, in the series on Trichomonas, the responders at 25 mg/kg came to 100%.

Regarding `Cn1c([N+](=O)[O-])cnc1C=Cc1nnc(-c2ccccc2)s1` [Example 2, 2-phenyl-5-[2-(1-methyl-5-nitroimidazol-2-yl)-vinyl]-1,3,4-thiadiazole], in the series on Trichomonas vaginalis, the “Relative effectiveness Metronidazol = 1.0” value came to 10.0. Besides, the MIC worked out at 0.01 µg/mL (≈ 0.0319 µM) in the series with Trichomonas vaginalis and 0.1 µg/mL (≈ 0.319 µM) in the series with Entamoeba histolytica. The acute action result with Trypanosoma brucei (11×50 mg/kg perorally), in the series with Trypanosoma gambiense (11×50 mg/kg perorally) and with Trypanosoma congolense (11×50 mg/kg perorally) was “no action” throughout. Besides, in the series with Trichomonas, the responders at 50 mg/kg stood at 10%.

For the compound `Cn1c([N+](=O)[O-])cnc1C=Cc1nncs1` [Example 6, 2-[2-(1-methyl-5-nitroimidazol-2-yl)-vinyl]-1,3,4-thiadiazole], the “Relative effectiveness Metronidazol = 1.0” value in the series on Trichomonas vaginalis is greater than 10.0. For the same compound, the MIC against Trichomonas vaginalis and with Entamoeba histolytica was less than 0.01 µg/mL throughout. Also, the acute action entry in the series on Trypanosoma brucei (11×50 mg/kg perorally), with Trypanosoma gambiense (11×50 mg/kg perorally) and in the series on Trypanosoma congolense (11×50 mg/kg perorally) was “no action” each time. In the series on Trichomonas, the responders at 50 mg/kg came out at 50%.

In the case of `CCc1nnc(C=Cc2ncc([N+](=O)[O-])n2C)s1` [Example 7, 2-ethyl-5-[2-(1-methyl-5-nitroimidazol-2-yl)-vinyl]-1,3,4-thiadiazole], the “Relative effectiveness Metronidazol = 1.0” value with Trichomonas vaginalis is greater than 10.0. The MIC against Trichomonas vaginalis and in the series on Entamoeba histolytica was less than 0.01 µg/mL throughout. Also, the acute action with Trypanosoma brucei (11×50 mg/kg (route not given)) is 100%; in the series with Trypanosoma gambiense (11×50 mg/kg perorally), “no action”; with Trypanosoma congolense (11×50 mg/kg perorally) it was “no action”. The same compound registered a recidivation in the series on Trypanosoma brucei (11×50 mg/kg (route not given)) of 30%. Further, in the series on Trichomonas, the responders at 50 mg/kg came out at 100%. In addition, the LD50 at 168 h in series [1] was greater than 1500 mg/kg.

Regarding `CCc1nnc(C(C)=Cc2ncc([N+](=O)[O-])n2C)s1` [Example 10, 2-ethyl-5-[1-methyl-2-(1-methyl-5-nitroimidazol-2-yl)-vinyl]-1,3,4-thiadiazole], in the series on Trichomonas vaginalis, the “Relative effectiveness Metronidazol = 1.0” value is recorded as greater than 10.0. Further, the MIC against Trichomonas vaginalis and in the series with Entamoeba histolytica was less than 0.01 µg/mL each time. Also, the acute action with Trypanosoma brucei (11×50 mg/kg perorally), in the series with Trypanosoma gambiense (11×50 mg/kg perorally) and in the series with Trypanosoma congolense (11×50 mg/kg perorally) was 100% throughout. Besides, the recidivation result in the series on Trypanosoma brucei (11×50 mg/kg perorally) is “no recidivation”; with Trypanosoma gambiense (11×50 mg/kg perorally), 60%; with Trypanosoma congolense (11×50 mg/kg perorally) it was “no recidication”. The responders at 25 mg/kg with Trichomonas was 100%. Also, the median lethal dose (LD50) at 168 h in series [1] was greater than 1500 mg/kg.

For the compound `Cc1ccc(C(=O)Nc2ccc(S(=O)(=O)O)c3cc(S(=O)(=O)O)cc(S(=O)(=O)O)c23)cc1NC(=O)c1cccc(NC(=O)Nc2cccc(C(=O)Nc3cc(C(=O)Nc4ccc(S(=O)(=O)O)c5cc(S(=O)(=O)O)cc(S(=O)(=O)O)c45)ccc3C)c2)c1` [Suramin, reference compound], the acute action with Trypanosoma brucei (7×50 mg/kg intraperitoneally) was found to be 80%; with Trypanosoma gambiense (7×50 mg/kg intraperitoneally) it was 50%; with Trypanosoma congolense (7×50 mg/kg intraperitoneally), 70%. The recidivation result in the series on Trypanosoma brucei (7×50 mg/kg intraperitoneally), with Trypanosoma gambiense (7×50 kg/mg intraperitoneally) and with Trypanosoma congolense (7×50 mg/kg intraperitoneally) was “no recidivation” throughout.

Broadly, the LD50 is the dose at which mortality reaches 50%.
